Laboratory results: US20210317092A1 (BAYER PHARMA AKTIENGESELLSCHAFT, priority 2016, published 2021)
Like-named read-outs stand apart in the source and are kept apart here.

Target: T1, human Bradykinin B1 receptor (Homo sapiens, UniProt P46663)
T1 construct: host or cells: CHO-K1
T1 sequence (P46663 1-353): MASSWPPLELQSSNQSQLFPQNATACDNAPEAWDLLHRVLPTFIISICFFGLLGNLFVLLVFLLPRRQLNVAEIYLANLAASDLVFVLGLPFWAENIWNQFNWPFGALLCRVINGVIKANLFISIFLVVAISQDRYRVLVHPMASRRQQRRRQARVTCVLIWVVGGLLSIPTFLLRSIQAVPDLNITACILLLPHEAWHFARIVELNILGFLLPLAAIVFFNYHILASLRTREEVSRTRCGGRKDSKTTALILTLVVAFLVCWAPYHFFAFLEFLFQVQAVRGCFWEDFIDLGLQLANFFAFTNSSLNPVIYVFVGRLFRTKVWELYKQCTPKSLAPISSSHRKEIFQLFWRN
Assay: Calcium flux Assay (FLIPR) with recombinant CHO-K1 cells expressing human Bradykinin B1 receptor, in presence (hB1 IC50) or absence (hB1 free IC50) of 0.1% BSA
Format: cell-based

[1] = in absence of 0.1% BSA, read-out: hB1 free IC50
[2] = in presence of 0.1% BSA, read-out: hB1 IC50

| Structure (SMILES) | IC50 [1] [nM] | IC50 [2] [nM] |
| --- | --- | --- |
| O=C(Nc1ccc(-c2ccc(C(F)(F)F)nc2)c(-c2nnn[nH]2)c1)C1(c2ccc(C(F)(F)F)cc2Cl)CC1 [Example 292, 1-[2-chloro-4-(trifluoromethyl)phenyl]-N-{3-(1H-tetrazol-5-yl)-4-[6-(trifluoromethyl)pyridin-3-yl]phenyl}cyclopro-panecarboxa-mide] | 7.85 | – |
| O=C(Nc1cnc(-c2cnn(C(F)F)c2)c(-c2nnn[nH]2)c1)C1(c2ccc(C(F)(F)F)cc2F)CC1 [Example 296, N-{6-[1-(difluoromethyl)-1H-pyrazol-4-yl]-5-(1H-tetrazol-5-yl)pyridin-3-yl}-1-[2-fluoro-4-(trifluoromethyl)phenyl]cyclopro-panecarboxamide] | 1730 | – |
| O=C(Nc1ccc(-c2ccc(C(F)(F)F)nc2)c(-c2nnn[nH]2)c1F)C1(c2cccc(Cl)c2)CC1 [Example 297, 1-(3-chlorophenyl)-N-{2-fluoro-3-(1H-tetrazol-5-yl)-4-[6-(trifluoromethyl)pyridin-3-yl]phenyl}cyclopro-panecarboxa-mide] | 350 | – |
| O=C(Nc1ccc(-c2ccc(C(F)(F)F)nc2)c(-c2nnn[nH]2)c1F)C1(c2ccc(F)c(F)c2)CC1 [Example 298, 1-(3,4-difluorophenyl)-N-{2-fluoro-3-(1H-tetrazol-5-yl)-4-[6-(trifluoromethyl)pyridin-3-yl]phenyl}cyclopro-panecarboxa-mide] | 368 | – |
| Cc1ccc(C2(C(=O)Nc3ccc(-c4ccc(C(F)(F)F)nc4)c(-c4nnn[nH]4)c3F)CC2)c(F)c1 [Example 299, 1-(2-fluoro-4-methylphenyl)-N-{2-fluoro-3-(1H-tetrazol-5-yl)-4-[6-(trifluoromethyl)pyridin-3-yl]phenyl}cyclopro-panecarboxa-mide] | 241 | – |
| O=C(Nc1ccc(-c2ccc(C(F)(F)F)nc2)c(-c2nnn[nH]2)c1F)C1(c2ccc(C(F)(F)F)cc2F)CC1 [Example 300] | 58.1 | – |
| O=C(Nc1ccc(-c2ccc(C(F)(F)F)nc2)c(-c2nnn[nH]2)c1F)C1(c2ccc(OC(F)(F)F)cc2F)CC1 [Example 301, N-{2-fluoro-3-(1H-tetrazol-5-yl)-4-[6-(trifluoromethyl)pyridin-3-yl]phenyl}-1-[2-fluoro-4-(trifluoromethoxy)phenyl]cyclo-propanecarboxa-mide] | 36.1 | – |
| O=C(Nc1cc(Cl)c(-c2ccc(C(F)(F)F)nc2)c(-c2nnn[nH]2)c1)C1(c2cccc(Cl)c2)CC1 [Example 302, 1-(3-chlorophenyl)-N-{3-chloro-5-(1H-tetrazol-5-yl)-4-[6-(trifluoromethyl)pyridin-3-yl]phenyl}cyclopro-panecarboxa-mide] | 44 | – |
| O=C(Nc1cc(Cl)c(-c2ccc(C(F)(F)F)nc2)c(-c2nnn[nH]2)c1)C1(c2ccc(F)c(F)c2)CC1 [Example 303, N-{3-chloro-5-(1H-tetrazol-5-yl)-4-[6-(trifluoromethyl)pyridin-3-yl]phenyl}-1-(3,4-difluorophenyl)cy-clopropanecar-boxamide] | 52 | – |
| O=C(Nc1cc(Cl)c(-c2ccc(C(F)(F)F)nc2)c(-c2nnn[nH]2)c1)C1(c2ccc(C(F)(F)F)cc2F)CC1 [Example 304, N-{3-chloro-5-(1H-tetrazol-5-yl)-4-[6-(trifluoromethyl)pyridin-3-yl]phenyl}-1-[2-fluoro-4-(trifluoromethyl)phenyl]cyclopro-panecarboxamide] | 18.5 | – |
| CCOc1ccc(-c2ccc(NC(=O)C3(c4ccccc4)CC3)cc2-c2nnn[nH]2)cn1 [Example 306, N-[4-(6-ethoxypyridin-3-yl)-3-(1H-tetrazol-5-yl)phenyl]-1-phenylcyclopropane-carboxamide] | 45.7 | 133 |
| CCOc1ccc(-c2ccc(NC(=O)C(C)(C)C)cc2-c2nnn[nH]2)cn1 [Example 309, N-[4-(6-ethoxypyridin-3-yl)-3-(1H-tetrazol-5-yl)phenyl]-2,2-dimethylpropan-amide] | 587 | – |
| COc1ccc(-c2ccc(NC(=O)C3(c4cccc(Cl)c4)CC3)cc2-c2nnn[nH]2)cc1F [Example 315, 1-(3-chlorophenyl)-N-[3′-fluoro-4′-methoxy-2-(1H-tetrazol-5-yl)biphenyl-4-yl]cyclopropane-carboxamide] | – | 235 |
| O=C(Nc1ccc(-c2ccc(OC(F)(F)F)cc2)c(-c2nnn[nH]2)c1)C1(c2cccc(Cl)c2)CC1 [Example 317, 1-(3-chlorophenyl)-N-[2-(1H-tetrazol-5-yl)-4′-(trifluoromethoxy)biphenyl-4-yl]cyclopropane-carboxamide] | – | 52.9 |
| O=C(Nc1ccc(-c2ccc(N3CCOCC3)cc2)c(-c2nnn[nH]2)c1)C1(c2cccc(Cl)c2)CC1 [Example 322, 1-(3-chlorophenyl)-N-[4′-(morpholin-4-yl)-2-(1H-tetrazol-5-yl)biphenyl-4-yl]cyclopropane carboxamide] | – | 238 |
| CN1CCN(c2ccc(-c3ccc(NC(=O)C4(c5cccc(Cl)c5)CC4)cc3-c3nnn[nH]3)cc2)CC1 [Example 330, 1-(3-chlorophenyl)-N-[4′-(4-methylpiperazin-1-yl)-2-(1H-tetrazol-5-yl)biphenyl-4-yl]cyclopropane carboxamide] | 141 | 158 |
| CS(=O)(=O)Nc1ccc(-c2ccc(NC(=O)C3(c4cccc(Cl)c4)CC3)cc2-c2nnn[nH]2)cc1 [Example 331, 1-(3-chloropehnyl)-N-{4′-[(methylsulfonyl)amino]-2-(1H-tetrazol-5-yl)biphenyl-4-yl}cyclopropane carboxamide] | 162 | 206 |
| O=C(Nc1ccc(-c2cc3c(Cl)nccc3o2)c(-c2nnn[nH]2)c1)C1(c2cccc(Cl)c2)CC1 [Example 332, N-[4-(4-chlorofuro[3,2-c]pyridin-2-yl)-3-(1H-tetrazol-5-yl)phenyl]-1-(3-chlorophenyl)cy-clopropanecarbox-amide] | 191 | 274 |

Further lines, results first:

| IC50 [1] [nM] | IC50 [2] [nM] | Structure (SMILES) |
| --- | --- | --- |
| – | 191 | O=C(Nc1ccc(-c2ccc(OCC(F)(F)F)nc2)c(-c2nnn[nH]2)c1)C1(c2cccc(Cl)c2)CC1 [Example 313, 1-(3-chlorophenyl)-N-{3-(1H-tetrazol-5-yl)-4-[6-(2,2,2-trifluoroethoxy)-pyridin-3-yl]phenyl}cyclopropanecarboxamide] |
| – | 340 | COc1ccc(-c2ccc(NC(=O)C3(c4cccc(Cl)c4)CC3)cc2-c2nnn[nH]2)cc1 [Example 314, 1-(3-chlorophenyl)-N-[4′-methoxy-2-(1H-tetrazol-5-yl)biphenyl-4-yl]cyclopropane-carboxamide] |
| – | 328 | COc1ccc(-c2ccc(NC(=O)C3(c4cccc(Cl)c4)CC3)cc2-c2nnn[nH]2)cn1 [Example 316, 1-(3-chlorophenyl)-N-[4-(6-methoxypyridin-3-yl)-3-(1H-tetrazol-5-yl)phenyl]cyclopro-panecarboxa-mide] |
| – | 59.1 | CCOc1cncc(-c2ccc(NC(=O)C3(c4cccc(Cl)c4)CC3)cc2-c2nnn[nH]2)c1 [Example 318, 1-(3-chlorophenyl)-N-[4-(5-ethoxypyridin-3-yl)-3-(1H-tetrazol-5-yl)phenyl]cyclopro-panecarboxa-mide] |
| 436 | 521 | CS(=O)(=O)c1cncc(-c2ccc(NC(=O)C3(c4cccc(Cl)c4)CC3)cc2-c2nnn[nH]2)c1 [Example 319, 1-(3-Chlorophenyl)-N-{4-[5-(methylsulfonyl)pyridin-3-yl]-3-(1H-tetrazol-5-yl)phenyl}cyclopro-panecarboxa-mide] |
| – | 208 | COc1cc(-c2ccc(NC(=O)C3(c4cccc(Cl)c4)CC3)cc2-c2nnn[nH]2)ccn1 [Example 320, 1-(3-Chlorophenyl)-N-[4-(2-methoxypyridin-4-yl)-3-(1H-tetrazol-5-yl)phenyl]cyclopro-panecarboxa-mide] |
| – | 152 | O=C(Nc1ccc(-c2cnc3ccoc3c2)c(-c2nnn[nH]2)c1)C1(c2cccc(Cl)c2)CC1 [Example 321, 1-(3-chlorophenyl)-N-[4-(furo[3,2-b]pyridin-6-yl)-3-(1H-tetrazol-5-yl)phenyl]cyclopro-panecarboxa-mide] |
| – | 355 | N#Cc1ccc(-c2ccc(NC(=O)C3(c4cccc(Cl)c4)CC3)cc2-c2nnn[nH]2)cn1 [Example 323, 1-(3-chlorophenyl)-N-[4-(6-cyanopyridin-3-yl)-3-(1H-tetrazol-5-yl)phenyl]cyclopro-panecarboxa-mide] |
| – | 1740 | N#Cc1cc(-c2ccc(NC(=O)C3(c4cccc(Cl)c4)CC3)cc2-c2nnn[nH]2)ccc1Cl [Example 325, N-[4′-chloro-3′-cyano-2-(1H-tetrazol-5-yl)biphenyl-4-yl]-1-(3-chlorophenyl)cy-clopropanecarbox-amide] |
| – | 420 | COc1ncc(-c2ccc(NC(=O)C3(c4cccc(Cl)c4)CC3)cc2-c2nnn[nH]2)cn1 [Example 333, 1-(3-chlorophenyl)-N-[4-(2-methoxypyrimidin-5-yl)-3-(1H-tetrazol-5-yl)phenyl]cyclopro-panecarboxa-mide] |
| 99.8 | 936 | N#Cc1ncc(-c2ccc(NC(=O)C3(c4cccc(Cl)c4)CC3)cc2-c2nnn[nH]2)cn1 [Example 334, 1-(3-chlorophenyl)-N-[4-(2-cyanopyrimidin-5-yl)-3-(1H-tetrazol-5-yl)phenyl]cyclopro-panecarboxa-mide] |
| 298 | 517 | O=C(Nc1ccc(-c2cncc(F)c2)c(-c2nnn[nH]2)c1)C1(c2cccc(Cl)c2)CC1 [Example 335, 1-(3-chlorophenyl)-N-[4-(5-fluoropyridin-3-yl)-3-(1H-tetrazol-5-yl)phenyl]cyclopro-panecarboxa-mide] |
| – | 1320 | N#Cc1cncc(-c2ccc(NC(=O)C3(c4cccc(Cl)c4)CC3)cc2-c2nnn[nH]2)c1 [Example 336, 1-(3-chlorophenyl)-N-[4-(5-cyanopyridin-3-yl)-3-(1H-tetrazol-5-yl)phenyl]cyclopro-panecarboxa-mide] |
